From patent US9643974B2, “Amino-substituted imidazopyridazines” (Bayer Intellectual Property GmbH, priority 2011, dated 2017)
Structures can show the parent of a compound that is named as a salt.

Assays:
[1] = target: T1, human full-lengt MKNK1 (Homo sapiens, UniProt Q9BUB5, T385D); test: MKNK1 kinase assay (MKNK1 TR-FRET assay); assay type: biochemical; conditions: ATP final conc. 10 μM, 15 min preincubation, 45 min reaction at 22° C.
T1 construct: purchased Carna Biosciences 02-145; host or cells: insect cells (baculovirus expression system)
Source text: MKNK1-inhibitory activity of compounds of the present invention was quantified employing the MKNK1 TR-FRET assay as described in the following paragraphs.
(§1) A recombinant fusion protein of Glutathione-S-Transferase (GST, N-terminally) and human full-lengt MKNK1 (amino acids 1-424 and T344D of accession number BAA 19885.1), expressed in insect cells using baculovirus expression system and purified via glutathione sepharose affinity chromatography, was purchased from Carna Biosciences (product no 02-145) and used as enzyme. As substrate for the kinase reaction the biotinylated peptide biotin-Ahx-IKKRKLTRRKSLKG (C-terminus in amide form) was used which can be purchased e.g. form the company Biosyntan (Berlin-Buch, Germany).
(§2) For the assay 50 nL of a 100 fold concentrated solution of the test compound in DMSO was pipetted into a black low volume 384 well microtiter plate (Greiner Bio-One, Frickenhausen, Germany), 2 μL of a solution of MKNK1 in aqueous assay buffer [50 mM HEPES pH 7.5, 5 mM magnesium chloride, 1.0 mM dithiothreitol, 0.005% (v/v) Nonidet-P40 (Sigma)] was added and the mixture was incubated for 15 min at 22° C. to allow pre-binding of the test compounds to the enzyme before the start of the kinase reaction. Then the kinase reaction was started by the addition of 3 μL of a solution of adenosine-tri-phosphate (ATP, 16.7 μM=>final conc. in the 5 μL assay volume is 10 μM) and substrate (0.1 μM=>final conc. in the 5 μL assay volume is 0.06 μM) in assay buffer and the resulting mixture was incubated for a reaction time of 45 min at 22° C. The concentration of MKNK1 was adjusted depending of the activity of the enzyme lot and was chosen appropriate to have the assay in the linear range, typical concentrations were in the range of 0.05 μg/ml. The reaction was stopped by the addition of 5 μL of a solution of TR-FRET detection reagents (5 nM streptavidine-XL665 [Cisbio Bioassays, Codolet, France] and 1 nM anti-ribosomal protein S6 (pSer236)-antibody from Invitrogen [#44921G] and 1 nM LANCE EU-W1024 labeled ProteinG [Perkin-Elmer, product no. AD0071]) in an aqueous EDTA-solution (100 mM EDTA, 0.1% (w/v) bovine serum albumin in 50 mM HEPES pH 7.5).
The resulting mixture was incubated for 1 h at 22° C. to allow the formation of complex between the phosphorylated biotinylated peptide and the detection reagents. Subsequently the amount of phosphorylated substrate was evaluated by measurement of the resonance energy transfer from the Eu-chelate to the streptavidine-XL. Therefore, the fluorescence emissions at 620 nm and 665 nm after excitation at 350 nm were measured in a TR-FRET reader, e.g. a Rubystar (BMG Labtechnologies, Offenburg, Germany) or a Viewlux (Perkin-Elmer). The ratio of the emissions at 665 nm and at […] was taken as the measure for the amount of phosphorylated substrate. The data were normalised (enzyme reaction without inhibitor=0% inhibition, all other assay components but no enzyme=100% inhibition). Usually the test compounds were tested on the same microtiterplate in 11 different concentrations in the range of 20 μM to 0.1 nM (20 μM, 5.9 μM, 1.7 μM, 0.51 μM, 0.15 μM, 44 nM, 13 nM, 3.8 nM, 1.1 nM, 0.33 nM and 0.1 nM, the dilution series prepared separately before the assay on the level of the 100 fold concentrated solutions in DMSO by serial 1:3.4 dilutions) in duplicate values for each concentration and […] were calculated by a 4 parameter fit.

[2] = target: T2, human full-length MKNK1 (Homo sapiens, UniProt Q9BUB5, T385D); test: MKNK1 kinase high ATP assay (TR-FRET-based); assay type: biochemical; conditions: ATP final conc. 2 mM, 15 min preincubation, 30 min reaction at 22° C.
T2 construct: purchased Carna Biosciences 02-145; host or cells: insect cells (baculovirus expression system)
Procedure: MKNK1 Kinase High ATP Assay
MKNK1-inhibitory activity at high ATP of compounds of the present invention after their preincubation with MKNK1 was quantified employing the TR-FRET-based MKNK1 high ATP assay as described in the following paragraphs.
as §1, with “human full-length” for “human full-lengt”, “was used,” for “was used”, “e.g. from” for “e.g. form”
as §2, with “3.3 mM=>final” for “16.7 μM=>final”, “2 mM)” for “10 μM)”, “30” for “45”, “0.003 μg/mL.” for “0.05 μg/ml.”
The resulting mixture was incubated for 1 h at 22° C. to allow the formation of complex between the phosphorylated biotinylated peptide and the detection reagents. Subsequently the amount of phosphorylated substrate was evaluated by measurement of the resonance energy transfer from the Eu-chelate to the streptavidine-XL. Therefore, the fluorescence emissions at 620 nm and 665 nm after excitation at 350 nm were measured in a TR-FRET reader, e.g. a Rubystar (BMG Labtechnologies, Offenburg, Germany) or a Viewlux (Perkin-Elmer). The ratio of the emissions at 665 nm and at […] was taken as the measure for the amount of phosphorylated substrate. The data were normalised (enzyme reaction without inhibitor=0% inhibition, all other assay components but no enzyme=100% inhibition).

T2 sequence (Q9BUB5 1-424 isoform Q9BUB5-2 T344D): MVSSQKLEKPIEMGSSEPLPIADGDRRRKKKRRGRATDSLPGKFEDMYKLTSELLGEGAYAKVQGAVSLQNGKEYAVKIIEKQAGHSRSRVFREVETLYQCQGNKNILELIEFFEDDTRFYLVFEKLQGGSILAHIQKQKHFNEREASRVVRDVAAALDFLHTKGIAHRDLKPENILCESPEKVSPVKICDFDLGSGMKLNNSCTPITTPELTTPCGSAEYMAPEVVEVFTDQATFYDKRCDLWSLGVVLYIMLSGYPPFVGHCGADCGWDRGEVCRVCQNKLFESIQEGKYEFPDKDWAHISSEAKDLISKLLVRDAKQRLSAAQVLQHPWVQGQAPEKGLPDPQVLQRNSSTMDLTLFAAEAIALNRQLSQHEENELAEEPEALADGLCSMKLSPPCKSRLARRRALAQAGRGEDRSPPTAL
T1 sequence (Q9BUB5 1-424 isoform Q9BUB5-2 T344D): as above

Row | SMILES | IC50 [1] | IC50 [2]
1 | COc1nccc2oc(-c3cnc4ccc(OC[C@@H](N)[C@@H](C)OCc5ccccc5)nn34)cc12 [Example 10, (2R,3R)-3-(Benzyloxy)-1-{[3-(4-methoxyfuro[3,2-c]pyridin-2-yl)imidazo[1,2-b]-pyridazin-6-yl]oxy}butan-2-amine] | 34 nM | 62 nM
2 | COc1nccc2oc(-c3cnc4ccc(OCC(C)CN)nn34)cc12 (centres unmarked) [Example 16, 3-{[3-(4-Methoxyfuro[3,2-c]pyridin-2-yl)imidazo[1,2-b]pyridazin-6-yl]oxy}-2-methylpropan-1-amine] | 8 nM | 19 nM
3 | N[C@H]1C[C@H](Oc2ccc3ncc(-c4cc5cnccc5o4)n3n2)C1 [Example 14, trans-3-{[3-(Furo[3,2-c]pyridin-2-yl)imidazo[1,2-b]pyridazin-6-yl]oxy}cyclobutanamine salt with formic acid] | 5 nM | 34 nM
4 | N[C@@H](COc1ccc2ncc(-c3cc4cnccc4o3)n2n1)c1ccccc1 [Example 7, (1R)-2-{[3-(Furo[3,2-c]pyridin-2-yl)imidazo[1,2-b]pyridazin-6-yl]oxy}-1-phenylethanamine] | 25 nM | 91 nM
5 | C[C@H](CN)Oc1ccc2ncc(-c3cc4cnccc4o3)n2n1 [Example 8, (2R)-2-{[3-(Furo[3,2-c]pyridin-2-yl)imidazo[1,2-b]pyridazin-6-yl]oxy}propan-1-amine] | 28 nM | 136 nM
6 | COc1nccc2oc(-c3cnc4ccc(OC[C@H](C)N)nn34)cc12 [Example 5, (2S)-1-{[3-(4-Methoxyfuro[3,2-c]pyridin-2-yl)imidazo[1,2-b]pyridazin-6-yl]-oxy}propan-2-amine] | 21 nM | 65 nM
7 | COc1nccc2oc(-c3cnc4ccc(O[C@H]5C[C@H](N)C5)nn34)cc12 [Example 2, trans-3-{[3-(4-Methoxyfuro[3,2-c]pyridin-2-yl)imidazo[1,2-b]pyridazin-6-yl]-oxy}cyclobutanamine] | 3 nM | 5 nM
8 | COc1nccc2oc(-c3cnc4ccc(O[C@H]5CCC[C@@H]5N)nn34)cc12 [Example 31, (1S,2S)-2-{[3-(4-Methoxyfuro[3,2-c]pyridin-2-yl)imidazo[1,2-b]pyridazin-6-yl]-oxy}cyclopentanamine] | 13 nM | 28 nM
9 | COc1nccc2oc(-c3cnc4ccc(O[C@@H]5CC[C@H](N)C5)nn34)cc12 [Example 18, (1S,3R)-3-{[3-(4-Methoxyfuro[3,2-c]pyridin-2-yl)imidazo[1,2-b]pyridazin-6-yl]-oxy}cyclopentanamine] | 17 nM | 43 nM
10 | C[C@@H](N)COc1ccc2ncc(-c3cc4cnccc4o3)n2n1 [Example 26, (2R)-1-{[3-(Furo[3,2-c]pyridin-2-yl)imidazo[1,2-b]pyridazin-6-yl]oxy}propan-2-amine] | 100 nM | 216 nM
11 | C[C@H](N)COc1ccc2ncc(-c3cc4ccncc4o3)n2n1 [Example 12, (2S)-1-{[3-(Furo[2,3-c]pyridin-2-yl)imidazo[1,2-b]pyridazin-6-yl]oxy}propan-2-amine] | 26 nM | 65 nM
12 | C[C@H](N)COc1ccc2ncc(-c3cc4cnccc4o3)n2n1 [Example 20, (2S)-1-{[3-(Furo[3,2-c]pyridin-2-yl)imidazo[1,2-b]pyridazin-6-yl]oxy}propan-2-amine] | 64 nM | 132 nM
13 | CC(C)Oc1nccc2oc(-c3cnc4ccc(OC[C@H](C)N)nn34)cc12 [Example 19, (2S)-1-({3-[4-(Propan-2-yloxy)furo[3,2-c]pyridin-2-yl]imidazo[1,2-b]pyridazin-6-yl}oxy)propan-2-amine] | 17 nM | 34 nM
14 | COc1nccc2oc(-c3cnc4ccc(OC[C@@H](N)c5ccccc5)nn34)cc12 [Example 4, (1S)-2-{[3-(4-Methoxyfuro[3,2-c]pyridin-2-yl)imidazo[1,2-b]pyridazin-6-yl]oxy}-1-phenylethanamine] | 20 nM | 91 nM
15 | COc1nccc2oc(-c3cnc4ccc(OCC(C)(C)N)nn34)cc12 [Example 22, 1-{[3-(4-Methoxyfuro[3,2-c]pyridin-2-yl)imidazo[1,2-b]pyridazin-6-yl]oxy}-2-methylpropan-2-amine] | 14 nM | 79 nM
16 | COc1nccc2oc(-c3cnc4ccc(O[C@H]5CC[C@H](N)CC5)nn34)cc12 [Example 21, trans-4-{[3-(4-Methoxyfuro[3,2-c]pyridin-2-yl)imidazo[1,2-b]pyridazin-6-yl]-oxy}cyclohexanamine salt with formic acid] | 10 nM | 31 nM
17 | CC(C)[C@H](N)COc1ccc2ncc(-c3cc4cnccc4o3)n2n1 [Example 30, (2S)-1-{[3-(Furo[3,2-c]pyridin-2-yl)imidazo[1,2-b]pyridazin-6-yl]oxy}-3-methylbutan-2-amine] | 137 nM | 309 nM
18 | N[C@H]1C[C@H](Oc2ccc3ncc(-c4cc5cnccc5o4)n3n2)C1 [Example 29, trans-3-{[3-(Furo[3,2-c]pyridin-2-yl)imidazo[1,2-b]pyridazin-6-yl]oxy}cyclobutanamine] | 8 nM | 16 nM
19 | N[C@H]1C[C@H](Oc2ccc3ncc(-c4cc5c(O)nccc5o4)n3n2)C1 [Example 35, 2-{6-[(trans-3-Aminocyclobutyl)oxy]imidazo[1,2-b]pyridazin-3-yl}furo[3,2-c]-pyridin-4-ol] | 21 nM | 44 nM
